Patent publication US8754071B2 (priority 2011, dated 2014)
pIC50: −log10 of the molar value. Where two headings read alike, the source gives them in different places.

Target: T1, c-kit (Homo sapiens, UniProt P10721)
T1 construct: human Mo7e cells which endogenously express c-kit; endogenous in cells; host or cells: human Mo7e cells (promegakaryocytic leukemia line), stimulated with human recombinant SCF
Experiment: Mo7e cell proliferation assay (SCF dependent proliferation)
Format: cell-based
Conditions: read-out: c-kit (Mo7e)
Procedure: Mo7e Cell Proliferation Assay The compounds of Table 1 and Table 2 were tested for inhibition of SCF dependent proliferation using human Mo7e cells which endogenously express c-kit in a 384 well format. […] After 48 hours of incubation at 37° C., cell viability was measured by adding 25 uL of CellTiter Glo (Promega) to the cells and the luminescence was measured by a […] camera (Molecular Devices). […] The IC50 value is given as that concentration of the test compound in question that provoke a response halfway between the baseline and maximum responses.

[1] = Table 1, human Mo7e cells stimulated with SCF, 48 hours, CellTiter Glo, 1% FBS
[2] = Table 2, human Mo7e cells stimulated with SCF, 48 hours, CellTiter Glo, 1% FBS

T1 sequence (P10721 26-976): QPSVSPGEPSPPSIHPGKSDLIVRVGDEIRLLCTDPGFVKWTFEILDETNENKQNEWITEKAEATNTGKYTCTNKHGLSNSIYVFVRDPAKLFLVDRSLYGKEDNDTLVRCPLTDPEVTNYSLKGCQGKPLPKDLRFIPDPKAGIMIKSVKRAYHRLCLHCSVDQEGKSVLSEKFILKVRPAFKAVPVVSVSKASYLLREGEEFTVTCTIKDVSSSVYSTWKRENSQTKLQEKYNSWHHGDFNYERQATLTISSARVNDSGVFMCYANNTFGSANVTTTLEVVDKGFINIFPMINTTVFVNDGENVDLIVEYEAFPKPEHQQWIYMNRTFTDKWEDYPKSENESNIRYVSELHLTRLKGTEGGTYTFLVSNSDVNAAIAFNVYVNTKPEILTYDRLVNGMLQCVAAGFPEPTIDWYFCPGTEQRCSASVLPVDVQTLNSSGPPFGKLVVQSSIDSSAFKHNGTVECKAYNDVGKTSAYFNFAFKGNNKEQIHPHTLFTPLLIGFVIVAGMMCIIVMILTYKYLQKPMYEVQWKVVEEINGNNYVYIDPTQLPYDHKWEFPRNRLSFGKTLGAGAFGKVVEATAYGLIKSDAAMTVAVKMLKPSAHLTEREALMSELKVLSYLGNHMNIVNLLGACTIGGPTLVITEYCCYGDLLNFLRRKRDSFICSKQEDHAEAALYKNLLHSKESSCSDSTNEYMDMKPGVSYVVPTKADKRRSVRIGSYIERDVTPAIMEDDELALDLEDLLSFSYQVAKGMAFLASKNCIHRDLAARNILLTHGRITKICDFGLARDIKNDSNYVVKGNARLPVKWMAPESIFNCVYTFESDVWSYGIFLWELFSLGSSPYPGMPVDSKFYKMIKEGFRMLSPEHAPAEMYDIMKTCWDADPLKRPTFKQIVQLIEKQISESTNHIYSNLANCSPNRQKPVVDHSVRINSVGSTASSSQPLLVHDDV

Row | SMILES | pIC50 [2] | other results
1 | Cc1ccc(-c2nc(N3CCC(F)(F)CC3)no2)cc1NC(=O)c1cnc2ccccn12 [F4] |  | pIC50 [1]: 7.46
2 | COC(=O)N1CC(c2nc(-c3ccc(C)c(NC(=O)c4cnc5ccccn45)c3)no2)C1 [F15, methyl 3-(3-(3-(imidazo[1,2-a]pyridine-3-carboxamido)-4-methylphenyl)-1,2,4-oxadiazol-5-yl)azetidine-1-carboxylate] |  | pIC50 [1]: 7.70
3 | Cc1ccc(-c2noc(CNC(=O)[C@@H]3CCCO3)n2)cc1NC(=O)c1cnc2ccccn12 [F147] | 6.63 | 
4 | Cc1ccc(-c2noc([C@H](C)N3CCC(F)(F)C3)n2)cc1NC(=O)c1cnc2ccccn12 [F51] |  | pIC50 [1]: 7.37
5 | COC(=O)N1CC(c2nc(-c3ccc(C)c(NC(=O)c4cnc5ccc(COCC(F)(F)F)cn45)c3)no2)C1 [F84] |  | pIC50 [1]: 7.42
6 | Cc1ccc(-c2noc(N3CC(F)(F)C3)n2)cc1NC(=O)c1cnc2cc(F)ccn12 [F87] |  | pIC50 [1]: 7.04
7 | Cc1ccc(-c2noc(CNC(=O)[C@H]3CCCO3)n2)cc1NC(=O)c1cnc2ccccn12 [F146] | 6.73 | 
8 | COC(=O)N1CC(c2nc(-c3ccc(C)c(NC(=O)c4cnc5ccc(COCCF)cn45)c3)no2)C1 [F96] |  | pIC50 [1]: 7.59
9 | COCCOC(=O)N1CC(c2nc(-c3ccc(C)c(NC(=O)c4cnc5ccccn45)c3)no2)C1 [F127] | 6.29 | 
10 | COC(=O)N1CCCCC1c1nc(-c2ccc(C)c(NC(=O)c3cnc4ccccn34)c2)no1 (stereo not drawn) [F9] |  | pIC50 [1]: 7.46
11 | Cc1ccc(-c2noc([C@H]3COCCN3C(=O)OC(C)(C)C)n2)cc1NC(=O)c1cnc2ccccn12 [F117] | 6.20 | 
12 | COC(=O)N1CC(c2nc(-c3ccc(C)c(NC(=O)c4cnc5cc(F)ccn45)c3)no2)C1 [F54] |  | pIC50 [1]: 7.43
13 | Cc1ccc(-c2noc(C3CCCCN3S(C)(=O)=O)n2)cc1NC(=O)c1cnc2ccccn12 (stereo not drawn) [F110] |  | pIC50 (Table 2, values marked *: 20% FBS instead of 1% FBS): 6.64

Second part, led by results:

Row | pIC50 [2] | SMILES | other results
14 | 6.45 | CC(=O)N1CCC(c2nc(-c3ccc(C)c(NC(=O)c4cnc5ccccn45)c3)no2)CC1 [F193] | 
15 | 6.54 | Cc1ccc2ncc(C(=O)Nc3cc(-c4noc(C5CCN5C(=O)OC(C)(C)C)n4)ccc3C)n2c1 (stereo not drawn) [F261] | 
16 | 6.32 | Cc1ccc(-c2noc(CC3CN(S(C)(=O)=O)C3)n2)cc1NC(=O)c1cnc2ccccn12 [F178] | 
17 | 6.55 | COC(=O)N1CC[C@H](Cc2nc(-c3ccc(C)c(NC(=O)c4cnc5ccccn45)c3)no2)C1 [F205] | 
18 | 6.77 | Cc1ccc(-c2noc(C[C@H]3CCN(S(C)(=O)=O)C3)n2)cc1NC(=O)c1cnc2ccccn12 [F206] | 
19 | 5.40 | Cc1ccc(-c2noc(C3CN(S(=O)(=O)c4cn(C)cn4)C3)n2)cc1NC(=O)c1cnc2ccccn12 [F301] | 
20 | 6.51 | Cc1ccc(-c2noc(C3CN(c4cnccn4)C3)n2)cc1NC(=O)c1cnc2ccccn12 [F243] | 
21 | 5.28 | Cc1ccc(-c2noc(CC3CCNC3)n2)cc1NC(=O)c1cnc2ccccn12 (stereo not drawn) [F304] | 
22 | 6.85 | COC(=O)N1CCO[C@@H](c2nc(-c3ccc(C)c(NC(=O)c4cnc5ccccn45)c3)no2)C1 [F198] | 
23 | 6.51 | COC(=O)N1CC[C@H]1c1nc(-c2ccc(C)c(NC(=O)c3cnc4ccc(C)cn34)c2)no1 [F262] | 
24 | 5.91 | CC(=O)N1CCOC[C@H]1c1nc(-c2ccc(C)c(NC(=O)c3cnc4ccccn34)c2)no1 [F275] | 
25 | 6.73 | Cc1ccc(-c2noc(C3CN(S(=O)(=O)C4CCN(C(=O)OC(C)(C)C)CC4)C3)n2)cc1NC(=O)c1cnc2ccccn12 [F163] | 
26 | 6.34 | Cc1ccc(-c2noc(C(NC(=O)OC(C)(C)C)C3COC3)n2)cc1NC(=O)c1cnc2ccccn12 (stereo not drawn) [F183] | 
27 | 6.28 | Cc1ccc(-c2noc(C3CN(S(=O)(=O)c4ccn(C)n4)C3)n2)cc1NC(=O)c1cnc2ccccn12 [F158] | 
28 | 6.45 | COC(=O)N1CC[C@H]1c1nc(-c2ccc(C)c(NC(=O)c3cnc4ccccn34)c2)no1 [F151] | 
29 | 6.47 | Cc1ccc(-c2noc(CN3CC(CO)C3)n2)cc1NC(=O)c1cnc2ccccn12 [F181] | 
30 | 6.84 | COC(=O)CCS(=O)(=O)N1CC(c2nc(-c3ccc(C)c(NC(=O)c4cnc5ccccn45)c3)no2)C1 [F161] | 
